For one series, the system named is virulent RVFVs. As to conditions: cited from earlier work.
The test system of series [1] is MP12 vaccine and its divergents. The following applies: cited from earlier work.
A further series relates to MP12 virus. Kind of series: microbe, parasite or virus in culture. Format: cell-based. As to conditions: Rift Valley fever virus, Vero C1008.
A short description of another series: in vitro. The following applies: African green monkey.

The structures appear in SMILES notation. Some results are limits rather than exact numbers.

Take `O=c1cnn([C@@H]2O[C@H](CO)[C@@H](O)[C@H]2O)c(=O)[nH]1` [Compound 6-azauridine, 6-azauridine]: the “antiviral activity on tested virulent RVFVs” value in the series with virulent RVFVs was “antiviral activity”. Besides, the “inhibition of MP12 vaccine and its divergents” value in series [1] is given as “inhibited”.

The term EC50 denotes the concentration giving half of the maximal effect. `NC(=O)c1ccc2c(c1)n(Cc1cccc(F)c1)c(=O)c1ccnn12` [WMA-RV2] returned a concentration for a half-maximal effect (EC50) in the series on MP12 virus of 6.96 µM. For the same compound, the CC50 in “in vitro” was more than 1280 µM.

In the series with MP12 virus, `CC(Cl)C(=O)N1CCCN(c2nc3ccccc3nc2-c2ccccc2)CC1` (centres unmarked) [WMA-RV3] had an EC50 of 2.08 µM. The same compound had a CC50 in “in vitro” of 363 µM.

In turn, `Cc1cc(C)c(C)c(S(=O)(=O)N2CCC(c3c[nH]c4c(C)cccc34)CC2)c1C` [WMA-RV5] came in with an EC50 in the series with MP12 virus of 9.14 µM. The compound also gave a CC50 in the series “in vitro” of more than 1280 µM.

The compound `Cc1nn(-c2ccccc2)c2sc(C(=O)NC(C)C)cc12` [WMA-RV8] registered an EC50 in the series on MP12 virus of 13 µM. This compound also had a CC50 in “in vitro” of more than 1280 µM.

In the series with MP12 virus, `CC(Cl)C(=O)N1CCN(c2nccc(-c3ccc(C(C)(C)C)cc3)n2)CC1` (centres unmarked) [WMA-RV4] came in with an EC50 of 3.19 µM. The compound also displayed a CC50 in the series “in vitro” of 168 µM.

In the case of `Cc1ccc(CN2CCCN(c3ccc(NC(=O)c4ccccc4C)cn3)CC2)cc1` [WMA-RV6], a half-maximal response with MP12 virus (EC50) required 1.03 µM. For the same compound, the CC50 in “in vitro” came out at 692 µM.

In turn, `CN1C(=O)c2cccnc2Sc2cc(C(=O)Nc3ccc(Cl)cc3)ccc21` [WMA-RV1] returned an EC50 in the series on MP12 virus of 0.863 µM. This compound gave a CC50 in the series “in vitro” of 320 µM.

Turning to `NC(=O)c1ncn([C@@H]2O[C@H](CO)[C@@H](O)[C@H]2O)n1` [Ribavirin], in the series with virulent RVFVs, the “antiviral activity on tested virulent RVFVs” value is on record as “antiviral activity”. Besides, the “inhibition of MP12 vaccine and its divergents” value in series [1] was “inhibited”.

With `Cc1ccccc1CN1CCCN(c2cccc(NC(=O)c3cccs3)c2)C1=O` [WMA-RV7], in the series on MP12 virus, it took 15.5 µM to reach a half-maximal effect (EC50). In the series “in vitro”, this compound registered a CC50 of more than 1280 µM.

These data come from patent US20230398126A1 (priority 2022, published 2023).
